Several values for one entry are separate records, joined by “and”; a condition that tells them apart may be missing. Equal values may be shown once.
Assays:
[1] = test system: high-fat diet-induced obesity experimental animals (C57BL/6J mice); experiment: Body weight change in high-fat diet-induced obesity mice orally given organic acid salts; format: in vivo, mouse; settings: for reduction in body weight gain compared with the high-fat diet control group / average body weight after 13 weeks of rearing: C57BL/6J mice, high-fat diet 13 weeks, oral once a day; for reduction in body weight gain compared with the high-fat diet control group: 10 mmol; for average body weight after 13 weeks of rearing: 10 mmol (2 μg/g bodyweight)
Experimental: (§1) In the present experiment, five-week-old C57BL/6J mice were purchased from Saeron Bio (Uiwang, Korea), and acclimated for 1 week before use in the experiment. The rearing room was controlled to have a temperature of 20±2° C., a humidity of 55±10%, and a light/darkness cycle of 12 hours during the experimental period. The experimental animals were divided into 6 groups according to the randomized block design, after 1-week of normal diet. The experimental groups were classified into Group A (normal diet group; n=10), Group B (high-fat diet control group; n=10), Group C (high-fat diet+sodium formate 10 mmol; n=9), Group D (high-fat diet+sodium butyrate 10 mmol; n=9), Group E (high-fat diet+sodium propionate 10 mmol; n=8), and Group F (high-fat diet+sodium acetate 10 mmol; n=4).
(§2) Water and feed were freely accessible. Groups A and B were orally administered with physiological saline, and the other groups were orally administered with corresponding organic acids once a day (2 μg/g bodyweight). For the test groups, obesity was induced by a high-fat diet for 13 weeks, and a high-fat diet (D12492; 60% of the calories) purchased from Research Diet (USA) was used in the experiment.
(§3) The body weights of the experimental animals were measured at a fixed time once a week during the experiment. The experimental animals were fasted for 12 hours before sacrifice, and blood was collected from eyes of the experimental animals anesthetized with ether. In order to prevent the coagulation of the blood after collection, the blood was placed in anti-coagulation tubes and left in an ice bath for 20 min. The collected blood samples were centrifuged at 3000 rpm for 10 min to separate serum therefrom, and refrigerated until use in the experiment. Thereafter, the kit through an enzymatic method was purchased from Young Dong Diagnostics (Yong-In, Korea) to measure the levels of blood lipids (triglyceride, cholesterol, HDL-Cholesterol, and LDL-Cholesterol). The organs were extracted, washed with physiological saline, dehydrated with a filter bed, and then weighed.
The high-fat diet-induced obesity experimental animals (C57BL/6J mice) were orally administered with each 10 mmol corresponding organic acid for 13 weeks, and the weights of the mice were measured once a week during the rearing.

[2] = test system: high-fat diet-induced obesity experimental animals (C57BL/6J mice); experiment: Organ weights (fat tissues, prostate, liver, spleen) in high-fat diet-induced obesity mice; format: in vivo, mouse; settings: high-fat diet 13 weeks, 10 mmol; for Brown fat weight / Epididymal fat weight / Kidney fat weight / Subcutaneous fat weight: oral once a day, mean ± S.D.
Experimental: as §1, §2, §3
The kidney fat, epididymal fat, subcutaneous fat, brown fat, prostate, liver, and spleen were extracted immediately after blood collection from the control and experimental groups, and washed with physiological saline, subjected to surface moisture removal, and then weighed.

[3] = test system: high-fat diet-induced obesity experimental animals (C57BL/6J mice); experiment: Blood analysis: serum lipid concentrations in high-fat diet-induced obesity mice; format: in vivo, mouse; settings: for serum Cholesterol / serum HDL / serum LDL / serum Triglyceride / content of cholesterol, reduction compared with the high-fat diet control group / serum triglyceride, lower value compared with the high-fat diet control group: C57BL/6J mice, high-fat diet 13 weeks, 10 mmol; for serum Cholesterol / serum HDL / serum LDL / serum Triglyceride: oral once a day, 12 h fasted, mean ± S.D.; for content of cholesterol, reduction compared with the high-fat diet control group / serum triglyceride, lower value compared with the high-fat diet control group: oral; for LDL-cholesterol content compared with the high-fat diet control group (in words): mouse, in vivo
Experimental: as §1, §2, §3

[4] = test system: epididymal fat cells; experiment: Size measurement of epididymal fat cells (H&E staining, Image J); format: in vivo, mouse; settings: C57BL/6J mice, high-fat diet 13 weeks, oral, 10 mmol; compared among groups and with high-fat diet control group
Experimental: as §1, §2
The immobilized tissue was sliced into 18 μm using a cryostat microtome, and fat cells were stained by hematoxylin and eosin (H&E) fat staining. The fat cells were decolorized using 60% isopropanol after the staining, and then imaged using a digital camera under a microscope. For size analysis of fat cells, the area of fat cells was measured using Image J Software (National Institute of Health, Maryland, USA).

[5] = administered orally; cited from earlier work
[6] = oral, no significant difference

SMILES	reduction in body weight gain compared with the high-fat diet control group [1] [%]	average body weight after 13 weeks of rearing [1] [g]	Brown fat weight [2]	Epididymal fat weight [2]	Kidney fat weight [2]	Subcutaneous fat weight [2]	weight of epididymal fat, lower value compared with the high-fat diet control group ([2]; oral) [%]	weight of subcutaneous fat, lower value compared with the high-fat diet control group ([2]; oral) [%]	serum Cholesterol [3]	serum HDL [3]	serum LDL [3]	serum Triglyceride [3]	content of cholesterol, reduction compared with the high-fat diet control group [3] [%]	serum triglyceride, lower value compared with the high-fat diet control group [3] [%]	LDL-cholesterol content compared with the high-fat diet control group (in words) [3]	epididymal fat cell size (in words) [4]	also measured
O=C[O-].[Na+] [formate, sodium formate]	10.4	36.78	0.09 ± 0.03^A g	2.01 ± 0.24^B g	0.72 g and 0.72 ± 0.08^BC g	1.08 g and 1.08 ± 0.21^B g	19.6	31.16	79.00 ± 2.81^C mg/dl	41.51 ± 3.56^D mg/dl	26.24 ± 0.29^CD mg/dl	99.48±14.18 mg/dl and 99.48 ± 14.18^C mg/dl	36.6	23.54	lower values	smaller in that order of butyrate, propionate, formate, and acetate	oral amount causing no side effect in the human body [5]: up to 10 g
CC(=O)[O-].[Na+] [acetate, sodium acetate]	–	41.08	0.11 ± 0.03^A g	2.31 ± 0.45^AB g	0.66 g and 0.81 ± 0.07^BAB g	1.74 ± 0.31^A g	7.6	–	114.86 ± 3.76^A mg/dl	61.09 ± 2.21^A mg/dl	32.34 ± 1.44^A mg/dl	155.21±5.43 mg/dl and 155.21 ± 5.43^A mg/dl	7.8	–	–	smaller in that order of butyrate, propionate, formate, and acetate	body weight compared with the high-fat diet control group (in words) ([1]; after 13 weeks, p<0.05): no significant difference; weight of brown fat, higher value compared with the high-fat diet control group [2, 6]: 22.22%; weight of subcutaneous fat, higher value compared with the high-fat diet control group [2, 6]: 10.13%; serum triglyceride compared with the high-fat diet control group (in words) ([3]; p<0.05): significantly higher value
CCCC(=O)[O-].[Na+] [butyrate, sodium butyrate]	15.6	31.25	0.09 ± 0.04^A g	2.00 ± 0.29^B g	0.71 ± 0.12^BC g	1.16 g and 1.16 ± 0.25^B g	20	26.58	95.63 ± 3.87^B mg/dl	55.99 ± 0.43^B mg/dl	24.95 ± 1.23^D mg/dl	128.01±14.72 mg/dl and 128.01 ± 14.72^B mg/dl	–	–	lower values	smaller in that order of butyrate, propionate, formate, and acetate	–
CCC(=O)[O-].[Na+] [propionate, sodium propionate]	18.3	30.05	0.09 ± 0.02^A g	1.91 ± 0.44^B g	0.71 g and 0.66 ± 0.09^C g	1.07 g and 1.07 ± 0.24^B g	23.6	32.27	95.63 ± 5.41^B mg/dl	50.12 ± 1.69^C mg/dl	30.41 ± 0.51^B mg/dl	120.68±10.07 mg/dl and 120.68 ± 10.07^B mg/dl	–	7.2	–	smaller in that order of butyrate, propionate, formate, and acetate	–
